Measured values published in US6548494B1, “Tricyclic inhibitors of poly(ADP-ribose) polymerases” (Agouron Pharmaceuticals, Inc., priority 1999, dated 2003).
Several values for one entry are separate records, joined by “and”; a condition that tells them apart may be missing. Equal values may be shown once.

Experiments:
A549 cells = experiment: Cytotoxicity potentiation assay; type: cell-based; details: test compound 0.4 μM, ratio of IC50 of topotecan alone to IC50 of topotecan with test compound
Protocol: A549 cells (ATCC, Rockville, Md.) were seeded into 96-well cell culture plates (Falcon brand, Fisher Scientific, Pittsburgh, Pa.) 16 to 24 hours before experimental manipulation. Cells were then treated with a test compound (or a combination of test compounds where indicated) each at a concentration of 0.4 μM for either 3 days or 5 days. At the end of treatments, relative cell number was determined either by MTT assay or SRB assay. For the MTT assay, 0.2 μg/μl of MTT (3-(4,5-dimethylthiazol-2-yl)-2,5-diphenyltetrazolium bromide) (Sigma Chemical Co., St. Louis, Mo.) was added to each well of a plate, and the plate was incubated in a cell-culture incubator for 4 hours. Metabolized MTT in each well was solubilized in 150 μl of DMSO (Sigma Chemical Co.) with shaking and quantified with a Wallac 1420 Victor plate reader (EG&G Wallac, Gaithersburg, Md.) at 540 nm. For the SRB assay, cells were fixed with 10% trichloroacetic acid (Sigma Chemical Co) for an hour at 4° C. After extensively washing, fixed cells were stained for 30 minutes with 0.4% sulforhodamine B (SRB, Sigma Chemical Co.) in 1% acetic acid (Sigma Chemical Co). Unbound SRB was washed away with 1% acetic acid. Then the cultures were air-dried, and dye was solubilized with 10 mM unbuffered Tris base (Sigma Chemical Co) with shaking. The bound dye was measured photometrically with the Wallac Victor plate reader at 515 nm. The ratio of the OD (optical density) value of a compound-treated culture to the OD value of a mock-treated culture, expressed in percentage, was used to quantify the cytotoxicity of a compound. […] To quantify the potentiation of the cytotoxicity of topotecan or temozolomide by test compounds, a dimensionless parameter PF50 is used and is defined as the ratio of the IC50 of topotecan or temozolomide alone to the IC50 of topotecan or temozolomide in combination with a test compound. For the compounds of the invention, PF50 values were determined by testing with topotecan.

purified PARP protein = purified PARP protein (Homo sapiens, UniProt P09874); experiment: PARP enzyme inhibition assay; type: biochemical; details: 20 nM purified PARP (5 nM for tight-binding inhibitors), 500 μM NAD+, 25° C.; several values in one cell = repeat determinations; read-out: Inhibition Constant Ki
purified PARP protein, sequence (P09874 whole entry): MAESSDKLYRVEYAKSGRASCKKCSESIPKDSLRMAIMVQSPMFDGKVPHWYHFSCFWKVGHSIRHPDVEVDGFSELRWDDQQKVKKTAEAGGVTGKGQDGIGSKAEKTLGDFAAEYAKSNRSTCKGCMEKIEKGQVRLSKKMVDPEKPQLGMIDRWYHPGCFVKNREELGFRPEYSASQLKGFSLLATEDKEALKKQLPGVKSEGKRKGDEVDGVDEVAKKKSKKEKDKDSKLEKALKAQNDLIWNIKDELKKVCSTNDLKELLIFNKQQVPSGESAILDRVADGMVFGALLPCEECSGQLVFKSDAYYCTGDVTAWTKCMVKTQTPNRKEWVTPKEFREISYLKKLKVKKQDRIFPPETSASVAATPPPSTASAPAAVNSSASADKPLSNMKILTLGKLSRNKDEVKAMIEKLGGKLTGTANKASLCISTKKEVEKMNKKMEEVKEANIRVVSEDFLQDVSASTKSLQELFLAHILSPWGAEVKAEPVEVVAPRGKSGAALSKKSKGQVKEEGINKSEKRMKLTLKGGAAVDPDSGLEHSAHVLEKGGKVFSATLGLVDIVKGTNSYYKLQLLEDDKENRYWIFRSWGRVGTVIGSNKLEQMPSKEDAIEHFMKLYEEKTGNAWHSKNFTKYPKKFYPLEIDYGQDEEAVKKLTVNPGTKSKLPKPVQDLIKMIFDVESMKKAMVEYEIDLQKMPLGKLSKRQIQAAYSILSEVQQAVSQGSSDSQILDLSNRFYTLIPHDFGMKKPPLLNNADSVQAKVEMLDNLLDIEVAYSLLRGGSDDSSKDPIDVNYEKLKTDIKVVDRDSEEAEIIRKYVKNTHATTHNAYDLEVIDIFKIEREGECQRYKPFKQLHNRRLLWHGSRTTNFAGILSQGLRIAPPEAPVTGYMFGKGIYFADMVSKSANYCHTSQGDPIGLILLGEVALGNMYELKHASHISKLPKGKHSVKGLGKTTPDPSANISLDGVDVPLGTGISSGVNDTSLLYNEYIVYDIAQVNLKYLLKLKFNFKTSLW

melting point	Ki (purified PARP protein)	Compound	Cytotoxicity Potentiation PF50 (A549 cells)
98 to 100 °C	9.1 nM	CN(C)Cc1cccc(-c2cc3cccc4c3n2CCNC4=O)c1 [Example 86, 6-(3-Dimethylaminomethyl-phenyl)-3,4-dihydro-2H-[1,4]diazepino[6,7,1-hi]indol-1-one]	1.6
204 to 208 °C (dec.)	3.3 nM	CNCc1ccc(-c2nc3cc(F)cc4c3n2CCNC4=O)cc1 [Example 98, 4-Fluoro-1-(4-methylaminomethyl-phenyl)-8,9-dihydro-7H-2,7,9a-triaza-benzo[cd]azulen-6-one]	2.1
240 °C (dec.)	1.7 nM	CN(C)Cc1ccc(-c2nc3cc(F)cc4c3n2CCNC4=O)cc1 [Example 99, 4-Fluoro-1-(4-dimethylaminomethyl-phenyl)-8,9-dihydro-7H-2,7,9a-triaza-benzo[cd]azulen-6-one]	2.0
> 300 °C (dec.)	3.2 nM and 4.2 nM	O=C1NCCn2c(-c3ccc(-n4ccnc4)cc3)nc3cccc1c32 [Example 119, 1-(4-Imidazol-1-yl-phenyl)-8,9-dihydro-7H-2,7,9a-triaza-benzo[cd]azulen-6-one]	2.2
277 to 279 °C	4.1 nM	O=C1NCCn2c(-c3ccc(-c4ccccn4)cc3)nc3cccc1c32 [Example 126, 1-(4-Pyridin-2-yl-phenyl)-8,9-dihydro-7H-2,7,9a-triaza-benzo[cd]azulen-6-one]	2.2
> 98 °C (dec.)	5 nM	CN(C)CCc1ccc(-c2nc3cccc4c3n2CCNC4=O)cc1 [Example 129, 1-[4-(2-Dimethylamino-ethyl)-phenyl]-8,9-dihydro-7H-2,7,9a-triaza-benzo[cd]azulen-6-one]	1.9
263 to 265 °C	4.4 nM and 5.6 nM	O=C1NCCn2c(-c3ccc(C4CCCCN4)cc3)nc3cccc1c32 (stereo not drawn) [Example 130, 1-(4-Piperidin-2-yl-phenyl)-8,9-dihydro-7H-2,7,9a-triaza-benzo[cd]azulen-6-one]	3.4
> 180 °C (dec.)	6.8 nM	CN1CCCCC1c1ccc(-c2nc3cccc4c3n2CCNC4=O)cc1 (stereo not drawn) [Example 132, 1-[4-(1-Methyl-piperidin-2-yl)-phenyl]-8,9-dihydro-7H-2,7,9a-triaza-benzo[cd]azulen-6-one]	2.4
284 to 286 °C	2.8 nM	O=C1NCCn2c(-c3ccc(-c4cccnc4)cc3)nc3cccc1c32 [Example 134, 1-(4-Pyridin-3-yl-phenyl)-8,9-dihydro-7H-2,7,9a-triaza-benzo[cd]azulen-6-one]	2.5
> 192 °C (dec.)	5.4 nM	O=C1NCCn2c(-c3ccc(C4CCNCC4)cc3)nc3cccc1c32 [Example 137, 1-(4-Piperidin-4-yl-phenyl)-8,9-dihydro-7H-2,7,9a-triaza-benzo[cd]azulen-6-one]	2.2

Second part, the molecule before the results:

Compound	melting point	Ki (purified PARP protein)	Cytotoxicity Potentiation PF50 (A549 cells)
O=C1NCCn2c(-c3ccc(Cl)cc3)cc3cccc1c32 [Example 34, 6-(4-Chlorophenyl)-3,4-dihydro-2H-[1,4]diazepino[6,7,1-hi]indol-1-one]	178 to 180 °C	11 nM	1.8
CNCc1cccc(-c2nc3cccc4c3n2CCNC4=O)c1 [Example 59, 1-(3-Methylaminomethyl-phenyl)-8,9-dihydro-7H-2,7,9a-triaza-benzo[cd]azulen-6-one]	110 °C (dec.)	4.2 nM	1.8
CNCc1ccc(-c2nc3cccc4c3n2CCNC4=O)cc1 [Example 75, 1-(4-Methylaminomethyl-phenyl)-8,9-dihydro-7H-2,7,9a-triaza-benzo[cd]azulen-6-one]	169 to 172 °C	1.9 nM	1.8
O=C1NCCn2c(-c3ccc(CN4CCOCC4)cc3)nc3cccc1c32 [Example 76, 1-(4-Morpholin-4-ylmethyl-phenyl)-8,9-dihydro-7H-2,7,9a-triaza-benzo[cd]azulen-6-one]	285 to 286 °C (dec.)	5.1 nM	1.6
COCCNCc1ccc(-c2nc3cccc4c3n2CCNC4=O)cc1 [Example 77, 1-(4-[(2-Methoxyethylamino)methyl]-phenyl)-8,9-dihydro-7H-2,7,9a-triaza-benzo[cd]azulen-6-one]	154 to 157 °C	6.9 nM	1.7
O=C1NCCn2c(-c3ccc(CNC4CC4)cc3)nc3cccc1c32 [Example 101, 1-(4-Cyclopropylaminomethyl-phenyl)-8,9-dihydro-7H-2,7,9a-triaza-benzo[cd]azulen-6-one]	84 °C (dec.)	2.3 nM	2.1
O=C1NCCn2c(-c3ccc(CCN4CCCC4)cc3)nc3cccc1c32 [Example 128, 1-[4-(2-Pyrrolidin-1-yl-ethyl)-phenyl]-8,9-dihydro-7H-2,7,9a-triaza-benzo[cd]azulen-6-one]	> 201 °C (dec.)	4 nM and 5.4 nM	1.8
CN1CCC(c2ccc(-c3nc4cccc5c4n3CCNC5=O)cc2)CC1 [Example 141, 1-[4-(1-Methyl-piperidin-4-yl)-phenyl]-8,9-dihydro-7H-2,7,9a-triaza-benzo[cd]azulen-6-one]	> 240 °C (dec.)	5.5 nM	2.3
O=C1NCCn2c(-c3ccc(C4CCCNC4)cc3)nc3cccc1c32 (stereo not drawn) [Example 142, 1-(4-Piperidin-3-yl-phenyl)-8,9-dihydro-7H-2,7,9a-triaza-benzo[cd]azulen-6-one]	> 230 °C (dec.)	3.8 nM	2.2
O=C1NCCn2c(-c3ccc(C4CCCN4)cc3)nc3cccc1c32 (stereo not drawn) [Example 148, 1-(4-Pyrrolidin-2-yl-phenyl)-8,9-dihydro-7H-2,7,9a-triaza-benzo[cd]azulen-6-one]	220 to 223 °C (dec.)	2.8 nM	2.5
CN1CCCC1c1ccc(-c2nc3cccc4c3n2CCNC4=O)cc1 (stereo not drawn) [Example 149]	235 to 238 °C (dec.)	4.2 nM	2.6
CN(C)Cc1ccc(-c2cc3cc(F)cc4c3n2CCNC4=O)cc1 [Example 170, 6-(4-Dimethylaminomethyl-phenyl)-9-fluoro-3,4-dihydro-2H-[1,4]diazepino[6,7,1-hi]indol-1-one]	172 to 174 °C	3.1 nM	1.9
